# Measurements: PMC3057096 (Bioorganic & medicinal chemistry, 2010)
# Experiments:
# [1] = test system: P. berghei (sensitive strain); test: In vivo blood-schizontocidal antimalarial activity, rodent malaria model; set-up: species or system mice; conditions: for P. berghei: mice cured: dose of 25 mg/kg
# P. falciparum (W2) = assay type: cell-based; conditions: Plasmodium falciparum, W2, read-out: P. falciparum (W2) IC50
# [2] = test system: methicillin-resistant Staphylococcus aureus ATCC 43300 (MRSA); test: In vitro antibacterial susceptibility testing; assay type: cell-based; conditions: ATCC43300|MRSA, read-out: MRSA MIC, NA = no activity at highest test concentration of 20 μg/mL
# P. falciparum (D6) = assay type: cell-based; conditions: Plasmodium falciparum, D6, read-out: P. falciparum (D6) IC50
# Staphylococcus aureus = test: In vitro antibacterial susceptibility testing; assay type: cell-based; conditions: read-out: S. aureus IC50, 50% growth inhibition
# β-hematin (BH) formation = test: Inhibition of β-hematin; assay type: biochemical; conditions: read-out: BH inhibition IC50
# [3] = rodents; cited from earlier work
# [4] = cited from earlier work
smiles,measurement,setting,value
"COc1cc(NC(C)CCCNC(=O)NCCCC(C)Nc2cc(OC)cc3ccc(C(C)(C)C)nc23)c2nc(C(C)(C)C)ccc2c1.Cl.Cl (centres unmarked) [Compound 68, 1,3-Bis{4-[(2-tert-butyl-6-methoxyquinolin-8-yl)amino]pentyl}urea·2HCl]",P. berghei in vivo activity class,"[1]; 100 mg/kg/day × 4, oral",Inactive
same,IC50,P. falciparum (W2),3.7 mg/L
"COc1cc(NC(C)CCCNC(=O)CC[C@H](N)C(=O)NCCCC(C)Nc2cc(OC)cc3ccc(C(C)(C)C)nc23)c2nc(C(C)(C)C)ccc2c1.Cl (stereo partly drawn) [Compound 63, N^1,N^5-Bis{4-[(2-tert-butyl-6-methoxyquinolin-8-yl)amino]pentyl}-L-glutamamide·3HCl]",P. berghei in vivo activity class,"[1]; 100 mg/kg/day × 4, oral",Inactive
"COc1cc(NC(C)CCCNCOC(=O)NCCCC(C)Nc2cc(OC)cc3cccnc23)c2ncccc2c1.Cl.Cl (centres unmarked) [Compound 76, ({4-[(6-Methoxyquinolin-8-yl)amino]pentyl}amino)methyl{4-[(6-methoxy-quinolin-8-yl)amino]pentyl}carbamate·2HCl]",P. berghei in vivo activity class,"[1]; 100 mg/kg/day × 4, oral",Suppressive
"COc1cc(NC(C)CCCNC(=O)NCCCC(C)Nc2cc(OC)cc3cccnc23)c2ncccc2c1.Cl.Cl (centres unmarked) [Compound 66, 1,3-Bis{4-[(6-methoxyquinolin-8-yl)amino]pentyl}urea·2HCl]",P. berghei in vivo activity class,"[1]; 100 mg/kg/day × 4, oral",Inactive
"COc1cc(NC(C)CCCNC(=O)N[C@@H](CCCN)C(=O)NCCCC(C)Nc2cc(OC)cc3ccc(C(C)(C)C)nc23)c2nc(C(C)(C)C)ccc2c1.Cl (stereo partly drawn) [Compound 42, N-{4-[(2-tert-butyl-6-methoxyquinolin-8-yl)amino]pentyl}-N^2-({4-[(2-tert-butyl-6methoxyquinolin-8-yl)amino]pentyl}carbamoyl)-D-ornithinamide·3HCl]",IC50,P. falciparum (W2),3.2 mg/L
"CCCCCOc1c(OC)cc(NC(C)CCCNC(=S)NCCCC(C)Nc2cc(OC)c(OCCCCC)c3c(CC)ccnc23)c2nccc(CC)c12.Cl.Cl (centres unmarked) [Compound 71, 1,3-Bis{4-[4-ethyl-6-methoxy-5-(pentyloxy)quinolin-8-ylamino]pentyl}-thiourea·2HCl]",MIC,[2],5 to 20 mg/L
"COc1cc(NC(C)CCCNC(=O)c2cncc(C(=O)NCCCC(C)Nc3cc(OC)cc4ccc(C(C)(C)C)nc34)c2)c2nc(C(C)(C)C)ccc2c1.Cl (centres unmarked) [Compound 85, N,N′-Bis{4-[(2-tert-butyl-6-methoxyquinolin-8-yl)amino]pentyl}pyridine-3,5-dicarboxamide·3HCl]",IC50,P. falciparum (W2),1.8 mg/L
same,IC50,P. falciparum (D6),2.7 mg/L
"COc1cc(NC(C)CCCNC(=O)C[C@@H](N)C(=O)NCCCC(C)Nc2cc(OC)cc3cccnc23)c2ncccc2c1.Cl (stereo partly drawn) [Compound 64, N^1,N^4-Bis{4-[(6-methoxyquinolin-8-yl)amino]pentyl}-D-aspartamide·3HCl]",IC50,P. falciparum (W2),3.6 mg/L
"COc1cc(NC(C)CCCNC(=O)C[C@H](N)C(=O)NCCCC(C)Nc2cc(OC)cc3ccc(C(C)(C)C)nc23)c2nc(C(C)(C)C)ccc2c1.Cl (stereo partly drawn) [Compound 62, N^1,N^4-Bis{4-[(2-tert-butyl-6-methoxyquinolin-8-yl)amino]pentyl}-L-aspartamide·3HCl]",P. berghei in vivo activity class,"[1]; 100 mg/kg/day × 4, oral",Inactive
same,IC50,P. falciparum (W2),3.2 mg/L
"COc1cc(NC(C)CCCNC(=O)N[C@@H](CCCNC(=N)N)C(=O)NCCCC(C)Nc2cc(OC)cc3cccnc23)c2ncccc2c1.Cl (stereo partly drawn) [Compound 36, N-{4-[(6-methoxyquinolin-8-yl)amino]pentyl}-N^2-({4-[(6-methoxyquinolin-8-yl)-amino]pentyl}carbamoyl)-D-argininamide·3HCl]",P. berghei in vivo activity class,"[1]; 50 mg/kg/day × 4, oral",Inactive
same,P. berghei in vivo activity class,"[1]; 100 mg/kg/day × 4, oral",Curative
same,IC50,P. falciparum (W2),1.8 mg/L
same,IC50,P. falciparum (D6),3.2 mg/L
"COc1cc(NC(C)CCCNC(=O)CC[C@H](N)C(=O)NCCCC(C)Nc2cc(OC)cc3cccnc23)c2ncccc2c1.Cl (stereo partly drawn) [Compound 61, N^1,N^5-Bis{4-[(6-methoxyquinolin-8-yl)amino]pentyl}-L-glutamamide·3HCl]",P. berghei in vivo activity class,"[1]; 10 mg/kg/day × 4, oral",Suppressive
same,P. berghei in vivo activity class,"[1]; 25 mg/kg/day × 4, oral",Curative
same,P. berghei in vivo activity class,"[1]; 50 mg/kg/day × 4, oral",Curative
same,P. berghei in vivo activity class,"[1]; 100 mg/kg/day × 4, oral",Curative
same,P. berghei: mice cured,[1],100%
same,IC50,P. falciparum (W2),2.2 mg/L
same,IC50,P. falciparum (D6),2.7 mg/L
"COc1cc(NC(C)CCCNC(=O)N[C@H](CCCCN)C(=O)NCCCC(C)Nc2cc(OC)cc3ccc(C(C)(C)C)nc23)c2nc(C(C)(C)C)ccc2c1.Cl (stereo partly drawn) [Compound 43, N-{4-[(2-tert-butyl-6-methoxyquinolin-8-yl)amino]pentyl}-N^2-({4-[(2-tert-butyl-6methoxyquinolin-8-yl)amino]pentyl}carbamoyl)-L-lysinamide·3HCl]",P. berghei in vivo activity class,"[1]; 100 mg/kg/day × 4, oral",Suppressive
same,IC50,P. falciparum (D6),1.6 mg/L
same,IC50,Staphylococcus aureus,1.78 to 2.73 mg/L
"COc1cc(NC(C)CCCNC(=O)NC(=O)NCCCC(C)Nc2cc(OC)cc3cccnc23)c2ncccc2c1.Cl.Cl (centres unmarked) [Compound 74, N,N′-Bis{4-[(6-methoxyquinolin-8-yl)amino]pentyl}dicarbonimidic diamide·2HCl]",P. berghei in vivo activity class,"[1]; 100 mg/kg/day × 4, oral",Inactive
"COc1cc(NC(C)CCCN)c2ncccc2c1 (centres unmarked) [PQ, primaquine]",IC50,β-hematin (BH) formation,> 1000 µM
same,time at which two major metabolites start appearing in the blood,[3],about 30 min
same,half life,[4],4 to 6 h
"COc1cc(NC(C)CCCNC(=S)NCCCC(C)Nc2cc(OC)cc3cccnc23)c2ncccc2c1.Cl.Cl (centres unmarked) [Compound 67, 1,3-Bis{4-[(6-methoxyquinolin-8-yl)amino]pentyl}thiourea·2HCl]",MIC,[2],5 to 20 mg/L
"COc1cc(NC(C)CCCNCCNCCNCCCC(C)Nc2cc(OC)cc3cccnc23)c2ncccc2c1.Cl.Cl (centres unmarked) [Compound 79, N^1,N^1′-(iminodiethane-2,1-diyl)bis[N^4-(6-methoxyquinolin-8-yl)pentane-1,4-diamine]·2HCl]",P. berghei in vivo activity class,"[1]; 10 mg/kg/day × 4, oral",Suppressive
same,P. berghei in vivo activity class,"[1]; 25 mg/kg/day × 4, oral",Curative
same,P. berghei in vivo activity class,"[1]; 50 mg/kg/day × 4, oral",Curative
same,P. berghei in vivo activity class,"[1]; 100 mg/kg/day × 4, oral",Curative
same,P. berghei: mice cured,[1],100%
"COc1cc(NC(C)CCCNC(=O)N[C@H](CCCCN)C(=O)NCCCC(C)Nc2cc(OC)cc3cccnc23)c2ncccc2c1.Cl (stereo partly drawn) [Compound 38, N-{4-[(6-methoxyquinolin-8-yl)amino]pentyl}-N^2-({4-[(6-methoxyquinolin-8-yl)-amino]pentyl}carbamoyl)-L-lysinamide·3HCl]",IC50,P. falciparum (D6),3.6 mg/L
"COc1cc(NC(C)CCCNC(=O)N[C@@H](CCCN)C(=O)NCCCC(C)Nc2cc(OC)cc3cccnc23)c2ncccc2c1.Cl (stereo partly drawn) [Compound 37, N-{4-[(6-methoxyquinolin-8-yl)amino]pentyl}-N^2-({4-[(6-methoxyquinolin-8-yl)-amino]pentyl}carbamoyl)-D-ornithinamide·3HCl]",P. berghei in vivo activity class,"[1]; 100 mg/kg/day × 4, oral",Inactive
